Legend:
[1] = system: isolated rat brain synaptosomes; test: 6-OHDA-induced neurotoxicity in isolated rat brain synaptosomes; assay type: cell-based; details: 150 μM, vs non-treated synaptosomes
Protocol: (§1) Two types of buffers were used for the isolation of the rat brain synaptosomes and mitochondria. Buffer A was 5 mM HEPES and 0.32 M Sucrose; Buffer B was 290 mM NaCl, 0.95 mM MgCl2 × 2H2O, 10 mM KCl, 2.4 mM CaCl2 × 2H2O, 2.1 mM NaH2PO4, 44 mM HEPES, 13 mM D-Glucose. For the gradient centrifugation, Percoll reagent was used. A stock solution of 90% Percoll was used to prepare 16%, 10% and 7.5% solutions. All the solutions were used as described below. Immediately after harvesting, synaptosomes, microsomes, and mitochondria were incubated with the exam compounds for 1 h. For assessing the possible neurotoxicity of the most MAOB active compounds, the sub-cellular fractions were incubated with 100 µM of them, and for evaluating their possible neuroprotective and antioxidant activities in different models of neurotoxicity, the sub-cellular fractions were incubated with 50µM of them. The protein measurement of all the sub-cellular fractions was made by the method of Lowry et al., 1951 [57].
The synaptosomes were prepared from rat brains by multiple sub-cellular fractionation using a Percoll gradient.
This in vitro model resembles the neurodegenerative processes occurring in PD. Dopamine metabolism and oxidation led to the formation of reactive oxygen species (ROS) and reactive quinones. These processes were catalyzed by the MAOB enzyme. They induced dopamine neurotoxicity and neurodegeneration. The synaptosomes were incubated with 150 μM 6-OHDA for 1 h.
After the incubation, the synaptosomes were centrifuged three times at 15,000× g for 1 min. MTT-test was performed to determine synaptosomal vitality by the method described by Mungarro-Menchaca et al..
The level of GSH was determined by measuring the non-protein SH-groups after precipitation of the proteins with trichloroacetic acid (TCA). The presence of thiols in the supernatant was determined using Elmman’s reagent. The resulting yellow color was measured spectrophotometrically (λ = 412 nm).

[2] = system: isolated rat brain mitochondria; test: t-BuOOH-induced oxidative stress in isolated rat brain mitochondria; assay type: cell-based; details: 75 μM, vs non-treated mitochondria
Protocol: as §1
The mitochondria were prepared by multiple differential fractionation using a Percoll gradient.
The mitochondria were incubated with 75 μM t-BuOOH [57].
After incubation of the mitochondria, 0.3 mL 0.2% TBA and 0.25 mL sulfuric acid (0.05 M) were added to stop the reaction. The tubes were maintained at 100 °C for 30 min. In the next stage, centrifugation of the tubes was carried out at 3500× g for 10 min. Assessment of the total quantity of MDA formed in each sample was measured in the supernatant at 532 nm.
After incubation of mitochondria, 0.04% DTNB was mixed with the mitochondrial suspensions in 0.1 M phosphate buffer (pH 7.4). The absorbance of the yellow product was measured at 412 nm.

AChE = target: T1, AChE (Electrophorus electricus, UniProt O42275); test: biochemical; assay type: biochemical; details: for inhibition at 200 µM: 200 µM compound; for IC50: means ± SD of three experiments
T1 construct: purchased Sigma-Aldrich, Hamburg, Germany
Protocol: (§2) AChE and BChE inhibitory activity of the newly synthesized pyrrole-based compounds was measured using the microplate assay described by Ellman et al. with the modifications added by López et al.. The compounds were tested at concentrations between 0.01 and 200 μM. First, they were dissolved in phosphate buffer (PBS) (8 mM K2HPO4, 2.3 mM NaH2PO4, 0.15 M NaCl, pH 7.5), assisted by the addition of no more than 5% MeOH. Then, they were serially diluted with PBS to provide the concentration range needed. Acetylcholinesterase from Electrophorus electricus and butyrylcholinesterase from equine serum (Sigma-Aldrich, Hamburg, Germany) were used with a substrate solution of 5,5′-dithiobis(2-nitrobenzoic acid) (DTNB) with acetylthiocholine iodide (ATCI) or butyrylthiocholine iodide (BTCI), respectively (0.04 M Na2HPO4, 0.2 mM DTNB, 0.24 mM ATCI or BTCI, pH 7.5). A total of 50 μL of AChE or BChE (0.25 U/mL, in PBS) and 50 μL of the tested compound solution were added to the wells. Incubation of the plates was performed at room temperature for 30 min. Then, 100 μL of substrate solution was added to start the enzymatic reaction. […] Enzyme activity was calculated as an inhibition percentage compared to an assay including buffer instead of an inhibitor.

BChE = target: T2, BChE (Equus caballus, UniProt P81908); test: biochemical; details: for IC50: means ± SD of three experiments, read-out: BChE IC50; for inhibition at 200 µM: read-out: Inhibition Activity 200 µM BChE
T2 construct: purchased Sigma-Aldrich, Hamburg, Germany; host or cells: equine serum
Protocol: as §2

[3] = target: T3, recombinant human MAO-A (hMAOA) (Homo sapiens, UniProt P21397); test: MAO-A inhibition, fluorometric Amplex UltraRed assay; assay type: biochemical; details: for inhibition at 1 µM: 1 µM compound, read-out: Inhibition Activity 1 µM MAO-A; for IC50: means ± SD of three experiments, read-out: MAO-A IC50
T3 sequence (P21397 1-527): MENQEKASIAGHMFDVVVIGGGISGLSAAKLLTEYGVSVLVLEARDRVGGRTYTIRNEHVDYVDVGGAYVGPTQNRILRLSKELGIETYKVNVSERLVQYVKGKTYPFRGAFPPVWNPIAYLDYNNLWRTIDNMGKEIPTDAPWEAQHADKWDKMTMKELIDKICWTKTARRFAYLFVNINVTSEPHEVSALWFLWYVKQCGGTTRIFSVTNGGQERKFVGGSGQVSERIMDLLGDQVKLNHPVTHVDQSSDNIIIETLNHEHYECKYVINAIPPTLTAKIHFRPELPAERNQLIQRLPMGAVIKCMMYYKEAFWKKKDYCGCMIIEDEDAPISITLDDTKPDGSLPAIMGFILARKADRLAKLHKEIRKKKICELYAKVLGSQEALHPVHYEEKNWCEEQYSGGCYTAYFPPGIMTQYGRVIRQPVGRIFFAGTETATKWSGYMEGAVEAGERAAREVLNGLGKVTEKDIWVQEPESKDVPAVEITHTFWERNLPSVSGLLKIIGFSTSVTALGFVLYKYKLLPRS
Protocol: (§3) Monoamine oxidase (MAO) activity for both recombinant human MAO-A (hMAOA) and MAO-B (hMAOB) was assessed using a fluorometric assay based on the Amplex® UltraRed reagent. This method, originally reported by Bautista-Aguilera et al. and later adapted with minor changes by Kasabova-Angelova et al., detects hydrogen peroxide or peroxidase activity present in enzymes or biological samples. In this assay, Amplex® Red reacts in a 1:1 molar ratio with hydrogen peroxide in the presence of peroxidase, producing the red-fluorescent compound resorufin. Due to resorufin’s strong extinction coefficient (58,000 ± 5000 cm^−1·M^−1), measurements could be accurately taken using either fluorometric or spectrophotometric methods. […] The control conditions included the use of purified hMAOA or hMAOB in reaction buffer, enzyme solutions with hydrogen peroxide, and buffer alone. All the test compounds were initially prepared at a 1 µM final concentration. These compounds were combined with either hMAOA or hMAOB and loaded into a 96-well plate (with eight replicates per test compound), followed by incubation for 30 min at 37 °C in the dark. Subsequently, a 50 µL detection mix was added to each well. This mix contained Amplex® Red, horseradish peroxidase (HRP), and tyramine substrate, all prepared in a reaction buffer. As this enzymatic reaction proceeded continuously, the fluorescence signal was recorded every 30 min (at 0, 30, 60, 90, 120, and 150 min) to track enzymatic kinetics.

[4] = target: T4, recombinant human MAO-B (hMAOB) (Homo sapiens, UniProt P27338); test: biochemical; assay type: biochemical; details: for inhibition at 1 µM: 1 µM compound; for IC50: means ± SD of three experiments
T4 sequence (P27338 1-520): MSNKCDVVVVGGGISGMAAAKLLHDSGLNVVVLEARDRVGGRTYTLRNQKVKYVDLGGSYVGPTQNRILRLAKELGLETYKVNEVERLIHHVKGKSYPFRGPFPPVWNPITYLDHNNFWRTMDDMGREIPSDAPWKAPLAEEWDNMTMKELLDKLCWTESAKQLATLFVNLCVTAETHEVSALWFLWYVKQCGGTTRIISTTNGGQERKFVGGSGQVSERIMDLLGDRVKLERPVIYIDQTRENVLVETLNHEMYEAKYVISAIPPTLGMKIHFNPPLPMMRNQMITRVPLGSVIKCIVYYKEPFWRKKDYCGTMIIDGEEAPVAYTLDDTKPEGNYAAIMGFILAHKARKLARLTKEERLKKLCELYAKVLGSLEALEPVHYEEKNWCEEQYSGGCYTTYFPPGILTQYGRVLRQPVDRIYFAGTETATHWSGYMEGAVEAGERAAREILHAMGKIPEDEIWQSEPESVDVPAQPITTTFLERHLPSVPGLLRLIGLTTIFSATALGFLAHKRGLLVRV
Protocol: as §3

T2 sequence (P81908 whole entry): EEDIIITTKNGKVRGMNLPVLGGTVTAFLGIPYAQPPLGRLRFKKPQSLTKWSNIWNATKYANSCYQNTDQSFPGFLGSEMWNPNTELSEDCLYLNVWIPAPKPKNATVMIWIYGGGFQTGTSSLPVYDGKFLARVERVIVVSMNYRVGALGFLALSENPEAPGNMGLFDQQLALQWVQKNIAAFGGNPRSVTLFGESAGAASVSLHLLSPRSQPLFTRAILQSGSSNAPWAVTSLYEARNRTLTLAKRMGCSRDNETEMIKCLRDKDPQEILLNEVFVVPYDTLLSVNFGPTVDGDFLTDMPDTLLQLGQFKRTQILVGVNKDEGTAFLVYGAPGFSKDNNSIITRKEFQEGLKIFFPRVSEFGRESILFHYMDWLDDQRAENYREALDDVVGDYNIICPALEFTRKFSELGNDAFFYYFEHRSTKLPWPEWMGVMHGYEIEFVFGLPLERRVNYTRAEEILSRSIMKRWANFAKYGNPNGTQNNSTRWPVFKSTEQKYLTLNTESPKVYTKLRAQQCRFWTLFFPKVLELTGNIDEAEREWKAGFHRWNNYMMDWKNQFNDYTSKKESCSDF
T1 sequence (O42275 24-633): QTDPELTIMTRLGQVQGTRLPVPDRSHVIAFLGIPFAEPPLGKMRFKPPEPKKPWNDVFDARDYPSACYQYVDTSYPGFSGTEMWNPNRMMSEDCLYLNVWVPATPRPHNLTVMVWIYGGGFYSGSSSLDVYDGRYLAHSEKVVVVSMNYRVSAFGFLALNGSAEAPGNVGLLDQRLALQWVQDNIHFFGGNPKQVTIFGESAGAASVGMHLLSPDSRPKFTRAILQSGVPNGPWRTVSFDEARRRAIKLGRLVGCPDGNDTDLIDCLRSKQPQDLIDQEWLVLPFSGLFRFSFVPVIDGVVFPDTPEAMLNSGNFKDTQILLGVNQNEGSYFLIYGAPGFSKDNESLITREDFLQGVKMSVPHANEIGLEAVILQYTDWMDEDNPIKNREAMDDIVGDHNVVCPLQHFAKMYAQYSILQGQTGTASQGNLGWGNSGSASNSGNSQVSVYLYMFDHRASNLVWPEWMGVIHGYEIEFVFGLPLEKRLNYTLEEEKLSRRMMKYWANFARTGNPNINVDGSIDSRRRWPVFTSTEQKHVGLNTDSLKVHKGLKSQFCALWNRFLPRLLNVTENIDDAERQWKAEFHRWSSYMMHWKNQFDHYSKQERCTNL

SMILES | decrease of GSH level by the toxic agent alone [1] | decrease of synaptosomal viability by the toxic agent alone [1] | decrease of GSH level by the toxic agent alone [2] | increase of MDA production by the toxic agent alone [2] | inhibition at 200 µM (AChE) | IC50 (AChE) | IC50 (BChE) | inhibition at 200 µM (BChE) | inhibition at 1 µM [3] | IC50 [3] | inhibition at 1 µM [4] | IC50 [4]
NCCc1cc(O)c(O)cc1O [Compound 6-OHDA, 6-hydroxydopamine, reference compound] | 50% | 50% | – | – | – | – | – | – | – | – | – | –
CC(C)(C)OO [t-BuOOH, tert-butyl hydroperoxide, reference compound] | – | – | 50% | 150% | – | – | – | – | – | – | – | –
Cc1ccc(C)n1C(CO)C(=O)O (centres unmarked) [EM-DC-22, 2-(2,5-dimethyl-1H-pyrrol-1-yl)-3-hydroxypropanoic acid] | – | – | – | – | 0% | > 200 µM | > 200 µM | 0% | 99 ± 7.2% | > 100 µM | 99 ± 7.1% | > 100 µM
COc1ccc(C)cc1-n1c(C)ccc1C [EM-DC-5, 1-(2-methoxy-5-methylphenyl)-2,5-dimethyl-1H-pyrrole] | – | – | – | – | 39.8 ± 2.64% | > 200 µM | 73.8 ± 5.96 µM | 74 ± 1.56% | 98 ± 7.3% | > 100 µM | 99 ± 7.1% | > 100 µM
Cc1ccc(C)n1CCc1ccc(Cl)cc1 [EM-DC-8, 1-[2-(4-chlorophenyl)ethyl]-2,5-dimethyl-1H-pyrrole] | – | – | – | – | 31.1 ± 2.48% | > 200 µM | > 200 µM | 35.4 ± 2.91% | 99 ± 7.3% | > 100 µM | 99 ± 7.1% | > 100 µM
Cc1ccc(C)n1C1CCN(Cc2ccccc2)CC1 [EM-DC-25, 1-benzyl-4-(2,5-dimethyl-1H-pyrrol-1-yl)piperidine] | – | – | – | – | 74.8 ± 1.47% | 87.2 ± 5.7 µM | 104 ± 2.5 µM | 69.8 ± 0.81% | 60 ± 7.1% | 0.33 ± 0.1 µM | 98 ± 7.1% | > 100 µM
Cc1cc(-n2c(C)ccc2C)c2ccccc2n1 [EM-DC-13, 4-(2,5-dimethyl-1H-pyrrol-1-yl)-2-methylquinoline] | – | – | – | – | 91.2 ± 1.22% | 3.81 ± 0.26 µM | 10.5 ± 0.17 µM | 83.81 ± 0.67% | 80 ± 7.1% | 0.38 ± 0.1 µM | 80 ± 7.1% | 0.41 ± 0.1 µM
Cc1ccc(C)n1CCc1ccc(O)cc1 [EM-DC-9, 4-[2-(2,5-dimethyl-1H-pyrrol-1-yl)ethyl]phenol] | – | – | – | – | 72.9 ± 3.02% | 76.8 ± 4.68 µM | 69.5 ± 7.52 µM | 73.7 ± 4.5% | 98 ± 6.8% | > 100 µM | 98 ± 7.1% | > 100 µM
Cc1ccc(C)n1CCN1CCOCC1 [EM-DC-16, 4-[2-(2,5-dimethyl-1H-pyrrol-1-yl)ethyl]morpholine] | – | – | – | – | 85.3 ± 2.43% | 11.8 ± 1.1 µM | > 200 µM | 48.8 ± 1.5% | 80 ± 7.3% | 0.46 ± 0.1 µM | 80 ± 7.1% | 0.47 ± 0.1 µM
Cc1ccc(C)n1C(Cc1ccc(O)cc1)C(=O)O (centres unmarked) [EM-DC-20, 2-(2,5-dimethyl-1H-pyrrol-1-yl)-3-(4-hydroxyphenyl)propanoic acid] | – | – | – | – | 0% | > 200 µM | > 200 µM | 0% | 75 ± 6.4% | 0.6 ± 0.1 µM | 75 ± 7.1% | 0.62 ± 0.1 µM

Reference: paper PMC12655551, “Design, Synthesis, and Evaluation of Pyrrole-Based Selective MAO-B Inhibitors with Additional AChE Inhibitory and Neuroprotective Properties Identified via Virtual Screening” (Pharmaceuticals, 2025)
